Results taken from ChEMBL document CHEMBL1126439, “Synthesis, biochemical activity and behavioral effects of a series of 1,4,5,6-tetrahydropyrimidines as novel ligands for M1 receptors” (Bioorg Med Chem Lett, 1992).
pEC50, pIC50: −log10 of the molar value.

Experiments:
[1] = target: Muscarinic acetylcholine receptor
Description: Inhibition of [3H](R)-QNB binding to muscarinic receptor in rat brain membranes

Rattus norvegicus [2] = organism: Rattus norvegicus; assay: Ability to stimulate PI (phospho inositol) metabolism in rat cerebral cortex at 100 uM concentration; type: functional
Rattus norvegicus [3] = organism: Rattus norvegicus; assay: Compound was evaluated for its ability to stimulate PI (phospho inositol) metabolism in the rat hippocampal slices; type: functional, Hippocampus
Rattus norvegicus [4] = organism: Rattus norvegicus; assay: cells; settings: Hippocampus
Description: Inhibition of PI (phospho inositol) response in rat hippocampus by the selective antagonist pirenzepine in the presence of 50 uM concentration of the compound

Rattus norvegicus [5] = organism: Rattus norvegicus; assay: Compound was evaluated for its ability to stimulate PI (phospho inositol) metabolism in the rat hippocampal slices, the 50% effective concentration was reported; type: functional; settings: Hippocampus
Rattus norvegicus [6] = organism: Rattus norvegicus; assay: cells; settings: Hippocampus; remark: listed apart in the source
Description: Inhibition of PI (phospho inositol) response in rat hippocampus by the selective antagonist AF-DX 116 in the presence of 50 uM concentration of the compound

Rattus norvegicus [7] = organism: Rattus norvegicus; assay: tissue or blood; settings: Hippocampus
Description: Effective concentration to stimulate PI (phospho inositol) metabolism in the rat hippocampal slices

Structure (SMILES)	Activity (Rattus norvegicus [2])	Stimulation (Rattus norvegicus [3]) [%]	other results
Cl.O=C(OCc1ccccc1)C1CN=CNC1 (centres undefined)	3.5		IC50 [1]: 2600 nM
CC(=O)OC1CN=CNC1.Cl (centres undefined)	45	70	IC50 [1]: 32000 nM
CC(C)OC(=O)C1CN=CNC1.Cl (centres undefined)	7.2		
COC(=O)C1CN=CNC1.Cl (centres undefined)	130	240	pIC50 (Rattus norvegicus [4]): 7.36; pEC50 (Rattus norvegicus [5]): 4.26; pIC50 (Rattus norvegicus [6]): 6.12
CCOC(=O)C1CN=CNC1.Cl (centres undefined)	150		
C#CCOC(=O)C1CN=CNC1.Cl (centres undefined)	230		
CCCOC(=O)C1CN=CNC1.Cl (centres undefined)	7.1		
CC(=O)OC1CN2CCC1CC2 (centres undefined) [ACECLIDINE]		300	pIC50 (Rattus norvegicus [4]): 6.92; pEC50 (Rattus norvegicus [7]): 4.68; pIC50 (Rattus norvegicus [6]): 6.55
C[N+](C)(C)CCOC(N)=O.[Cl-] [CARBACHOL]	580		
